Data taken from US20230183193A1, “4-DIFLUOROMETHYL BENZOYL AMIDES WITH HERBICIDAL ACTION” (BAYER CROPSCIENCE AKTIENGESELLSCHAFT, priority 2017, published 2023).

Tests used:
Assay type in all cases: in vivo
[1] = tested on: Abutilon theophrasti; test: Pre-emergence herbicidal action, ABUTH; conditions: dosage 320 g/ha, scored visually after 3 weeks vs untreated controls
Text: (§1) 1. Pre-Emergence Herbicidal Action Against Harmful Plants Seeds of monocotyledonous and dicotyledonous weed plants and crop plants are laid out in sandy loam soil in wood-fiber pots and covered with soil. The compounds of the invention, formulated in the form of wettable powders (WP) or as emulsion concentrates (EC), are then applied to the surface of the covering soil in the form of an aqueous suspension or emulsion at a water application rate equating to […], with addition of 0.2% wetting agent. After the treatment, the pots are placed in a greenhouse and kept under good growth conditions for the trial plants. The damage to the test plants is scored visually after a test period of 3 weeks by comparison with untreated controls (herbicidal activity in percent (%): 100% activity=the plants have died, 0% activity=like control plants).
(§2) For comparison, the herbicidal activity of numerous compounds according to the invention was tested with the structurally closest compounds known from the documents WO 2011/035874, WO 2012/028579 and WO 2012/126932, by the pre- and post-emergence method.

[2] = tested on: Amaranthus retroflexus; test: Pre-emergence herbicidal action, AMARE; conditions: dosage 320 g/ha, scored visually after 3 weeks vs untreated controls
Text: as §1, §2

[3] = tested on: Cyperus serotinus; test: Pre-emergence herbicidal action, CYPES; conditions: dosage 320 g/ha, scored visually after 3 weeks vs untreated controls
Text: as §1, §2

[4] = tested on: Matricaria inodora; test: Pre-emergence herbicidal action, MATIN; conditions: dosage 320 g/ha, scored visually after 3 weeks vs untreated controls
Text: as §1, §2

[5] = tested on: Setaria viridis; test: Pre-emergence herbicidal action, SETVI; conditions: dosage 320 g/ha, scored visually after 3 weeks vs untreated controls
Text: as §1, §2

[6] = tested on: Stellaria media; test: Pre-emergence herbicidal action, STEME; conditions: dosage 320 g/ha, scored visually after 3 weeks vs untreated controls
Text: as §1, §2

[7] = tested on: Viola tricolor; test: Pre-emergence herbicidal action, VIOTR; conditions: dosage 320 g/ha, scored visually after 3 weeks vs untreated controls
Text: as §1, §2

[8] = tested on: Abutilon theophrasti; test: Post-emergence herbicidal action, ABUTH; conditions: 80 g/ha, Table D
Method: (§3) Seeds of monocotyledonous and dicotyledonous weed and crop plants are laid out in sandy loam soil in wood-fiber pots, covered with soil and cultivated in a greenhouse under good growth conditions. 2 to 3 weeks after sowing, the test plants are treated at the one-leaf stage. The compounds of the invention, formulated in the form of wettable powders (WP) or as emulsion concentrates (EC), are then sprayed onto the green parts of the plants in the form of an aqueous suspension or emulsion at a water application rate equating to […], with addition of 0.2% wetting agent. After the test plants have been left to stand in the greenhouse under optimal growth conditions for about 3 weeks, the action of the preparations is assessed visually in comparison to untreated controls (herbicidal action in percent (%): 100% activity=the plants have died, 0% activity=like control plants). […] At the same time, inventive compounds leave Gramineae crops such as barley, wheat, rye, millet/sorghum, corn or rice virtually undamaged when applied post-emergence, even at high active compound dosages. In addition, some substances are also harmless to dicotyledonous crops such as soya, cotton, oilseed rape, sugar beet or potatoes. Some of the compounds according to the invention have high selectivity and are therefore suitable for controlling unwanted vegetation in agricultural crops by the post-emergence method. The data of Tables C and D below illustrate, in an exemplary manner, the […] herbicidal action of the compounds according to the invention, the herbicidal activity being stated in percent.
as §2

[9] = tested on: Amaranthus retroflexus; test: Post-emergence herbicidal action, AMARE; conditions: 80 g/ha, Table D
Method: as §3, §2

[10] = tested on: Pharbitis purpureum; test: Post-emergence herbicidal action, PHBPU; conditions: 80 g/ha, Table D
Method: as §3, §2

[11] = tested on: Setaria viridis; test: Post-emergence herbicidal action, SETVI; conditions: 80 g/ha, Table C
Method: as §3, §2

[12] = tested on: Stellaria media; test: Post-emergence herbicidal action, STEME; conditions: 80 g/ha, Table D
Method: as §3, §2

[13] = tested on: Viola tricolor; test: Post-emergence herbicidal action, VIOTR; conditions: 80 g/ha, Table D
Method: as §3, §2

[14] = tested on: ECHCG; test: Post-emergence herbicidal action, ECHCG; conditions: 80 g/ha, Table C
Method: as §3

[15] = tested on: Alopecurus myosuroides; test: Pre-emergence herbicidal action, ALOMY; conditions: dosage 320 g/ha, scored visually after 3 weeks vs untreated controls
Text: as §1, §2

[16] = tested on: Avena fatua; test: Pre-emergence herbicidal action, AVEFA; conditions: dosage 320 g/ha, scored visually after 3 weeks vs untreated controls
Text: as §1, §2

[17] = tested on: Avena fatua; test: Post-emergence herbicidal action, AVEFA; conditions: 80 g/ha, Table C
Method: as §3, §2

CCS(=O)(=O)c1c(C(F)F)ccc(C(=O)Nc2ncnn2C)c1C [Example 4-6]
100%: herbicidal activity ABUTH [1] | herbicidal activity AMARE [2] | herbicidal activity CYPES [3] | herbicidal activity MATIN [4] | herbicidal activity VIOTR [7] | herbicidal activity ABUTH [8] | herbicidal activity AMARE [9] | herbicidal activity SETVI [11] | Herbicidal activity STEME [12] | herbicidal activity VIOTR [13] | Herbicidal activity ECHCG [14]
80%: Herbicidal activity PHBPU [10]
90%: herbicidal activity SETVI [5] | Herbicidal activity STEME [6]

CCc1c(C(=O)Nc2nnnn2CC)ccc(C(F)F)c1[S+](C)[O-] (stereo not shown) [Example 2-14]
100%: herbicidal activity ABUTH [1] | herbicidal activity ALOMY [15] | herbicidal activity AMARE [2] | herbicidal activity AVEFA [16] | herbicidal activity CYPES [3] | herbicidal activity MATIN [4] | herbicidal activity SETVI [5] | Herbicidal activity STEME [6] | herbicidal activity VIOTR [7] | herbicidal activity ABUTH [8] | herbicidal activity AMARE [9] | herbicidal activity SETVI [11] | Herbicidal activity STEME [12] | herbicidal activity VIOTR [13] | Herbicidal activity ECHCG [14]
90%: herbicidal activity AVEFA [17] | Herbicidal activity PHBPU [10]

CC[S+]([O-])c1c(C(F)F)ccc(C(=O)Nc2ncnn2C)c1C (stereo not shown) [Example 4-5]
100%: herbicidal activity AMARE [2] | herbicidal activity VIOTR [7] | herbicidal activity VIOTR [13]
80%: herbicidal activity ABUTH [8]
90%: herbicidal activity MATIN [4] | herbicidal activity AMARE [9] | Herbicidal activity PHBPU [10] | herbicidal activity SETVI [11] | Herbicidal activity STEME [12] | Herbicidal activity ECHCG [14]

CCn1nnnc1NC(=O)c1ccc(C(F)F)c(S(C)(=O)=O)c1F [Example 2-39]
90%: herbicidal activity AMARE [9] | Herbicidal activity PHBPU [10] | Herbicidal activity ECHCG [14]
80%: herbicidal activity AVEFA [17]
100%: herbicidal activity ABUTH [1] | herbicidal activity AMARE [2] | herbicidal activity AVEFA [16] | herbicidal activity CYPES [3] | herbicidal activity MATIN [4] | herbicidal activity SETVI [5] | Herbicidal activity STEME [6] | herbicidal activity VIOTR [7] | herbicidal activity ABUTH [8] | herbicidal activity SETVI [11] | Herbicidal activity STEME [12] | herbicidal activity VIOTR [13]

CCSc1c(C(F)F)ccc(C(=O)Nc2ncnn2C)c1C [Example 4-4]
80%: herbicidal activity ABUTH [8] | Herbicidal activity PHBPU [10]
90%: herbicidal activity SETVI [11] | Herbicidal activity STEME [12]
100%: herbicidal activity AMARE [2] | herbicidal activity MATIN [4] | Herbicidal activity STEME [6] | herbicidal activity VIOTR [7] | herbicidal activity AMARE [9] | herbicidal activity VIOTR [13] | Herbicidal activity ECHCG [14]

Cc1c(C(=O)Nc2ncnn2C)ccc(C(F)F)c1[S+](C)[O-] (stereo not shown) [Example 4-2]
80%: herbicidal activity AVEFA [16] | herbicidal activity CYPES [3] | herbicidal activity AVEFA [17] | herbicidal activity SETVI [11]
100%: herbicidal activity ABUTH [1] | herbicidal activity AMARE [2] | herbicidal activity MATIN [4] | herbicidal activity SETVI [5] | Herbicidal activity STEME [6] | herbicidal activity AMARE [9] | herbicidal activity VIOTR [13] | Herbicidal activity ECHCG [14]
90%: herbicidal activity VIOTR [7] | herbicidal activity ABUTH [8] | Herbicidal activity PHBPU [10] | Herbicidal activity STEME [12]

CC[S+]([O-])c1c(C(F)F)ccc(C(=O)Nc2ncnn2C)c1F (stereo not shown) [Example 4-41]
80%: herbicidal activity SETVI [5] | Herbicidal activity STEME [6] | Herbicidal activity ECHCG [14]
100%: herbicidal activity ABUTH [1] | herbicidal activity AMARE [2] | herbicidal activity ABUTH [8]
90%: herbicidal activity VIOTR [7] | herbicidal activity AMARE [9] | Herbicidal activity PHBPU [10] | Herbicidal activity STEME [12] | herbicidal activity VIOTR [13]

CCS(=O)(=O)c1c(C(F)F)ccc(C(=O)Nc2nnnn2C)c1F [Example 1-42]
80%: Herbicidal activity ECHCG [14]
100%: herbicidal activity ABUTH [1] | herbicidal activity ALOMY [15] | herbicidal activity AMARE [2] | herbicidal activity AVEFA [16] | herbicidal activity CYPES [3] | herbicidal activity MATIN [4] | herbicidal activity SETVI [5] | Herbicidal activity STEME [6] | herbicidal activity VIOTR [7] | herbicidal activity AMARE [9] | Herbicidal activity PHBPU [10] | Herbicidal activity STEME [12] | herbicidal activity VIOTR [13]
90%: herbicidal activity ABUTH [8] | herbicidal activity SETVI [11]

CCn1nnnc1NC(=O)c1ccc(C(F)F)c(S(=O)(=O)CC)c1F [Example 2-42]
100%: herbicidal activity ABUTH [1] | herbicidal activity AMARE [2] | herbicidal activity MATIN [4] | herbicidal activity SETVI [5] | herbicidal activity VIOTR [7] | herbicidal activity ABUTH [8] | herbicidal activity SETVI [11] | Herbicidal activity STEME [12] | herbicidal activity VIOTR [13] | Herbicidal activity ECHCG [14]
90%: herbicidal activity ALOMY [15] | herbicidal activity AVEFA [16] | herbicidal activity CYPES [3] | Herbicidal activity STEME [6] | herbicidal activity AMARE [9] | Herbicidal activity PHBPU [10]
